According to patent EP1095663B1, “Potentiated and stabilised disinfectant having bactericidal and virucidal activity” (Sogeval S.A., priority 1999, dated 2001):
Like-named read-outs stand apart in the source and are kept apart here.

What was measured:
[1] = tested on: virus de la maladie de Talfan; assay: Virucidal activity of mixtures, drop of viral titre, Example 1; format: cell-based; conditions: 30 min, 20°C, eau dure à 30°f + matières organiques
Procedure: Pour déterminer l'activité virucide de l'association susmentionnée, on a préparé différents mélanges monoperoxyphtalate de magnésium/cumène sulfonate de sodium/acide malique et on a analysé l'efficacité de ces différents mélanges sur le virus de la maladie de Talfan, ce en appliquant les conditions expérimentales qui correspondent aux exigences en matière d'homologation d'un désinfectant à usage agricole [temps de contact 30 min. - température 20°C - conditions de saleté : eau dure à 30°f + matières organiques (albumine 1 % + extrait de levure 1 %)].

[2] = tested on: Pseudomonas aeruginosa (CIP A 22)
Procedure: (§1) On a analysé l'activité bactéricide des produits testés sur les deux souches bactériennes Pseudomonas aeruginosa (CIP A 22) et Enteroccocus hirae (CIP 58 55).
(§2) On a ainsi déterminé les concentrations minimales bactéricides (CMB), d'une part, de monoperoxyphtalate de magnésium (MMPP) et de mélange Ml seul et, d'autre part, de leur association, ce dans des solutions d'eau distillée, d'eau dure à 30°f et dans les conditions de saleté prévues par les normes correspondant aux exigences en matière d'homologation d'un désinfectant à usage agricole (matières organiques : albumine 1 % + extrait de levures 1 %).

[3] = tested on: Enteroccocus hirae (CIP 58 55)
Procedure: as §1, §2

lapin = conditions: Toxicité aiguë par voie dermique; cited from earlier work
rat [4] = conditions: Toxicité aiguë par inhalation; cited from earlier work
truite arc en ciel = conditions: cited from earlier work
[5] = tested on: Pseudomonas aeruginosa, Escherichia coli, Staphylococcus aureus et Enteroccocus hirae; assay: Bactericidal activity on all four tested strains (summary); format: cell-based; conditions: conditions requises (NF-T 72-301)
Procedure: (§3) Conformément à l'invention, on a vérifié l'activité bactéricide du monoperoxyphtalate de magnésium vis-à-vis de souches bactériennes fréquentes dans les élevages, à savoir les souches suivantes : Pseudomonas aeruginosa, Escherichia coli, Staphylococcus aureus et Enteroccocus hirae, ce en appliquant les conditions expérimentales qui répondent aux exigences d'homologation d'un désinfectant à usage agricole qui sont définies par la norme NF-T 72-301 (temps de contact 5 min. température 20°C, conditions de saleté : eau dure à 30°f, matière organique = albumine 1 % + extraits de levures 1 %).
(§4) Il est à noter que conformément aux exigences en matière d'homologation (norme NF-T 72-171) une substance est considérée comme active à une concentration d'emploi donnée lorsqu'elle permet de réduire le titre bactérien d'au moins 10^5, soit 5 Log.

[6] = 20°C; cited from earlier work
[7] = test de AMES; cited from earlier work
[8] = tested on: virus de la maladie de Talfan
Excerpt: Selon les normes en vigueur, une substance est considérée comme virucide lorsqu'elle permet de réduire le titre viral d'au moins 10^3, c'est-à-dire de 3 Log.
Ce test a été effectué sur le virus de la maladie de Talfan (enterovirus non enveloppé, à ARN).

rats de laboratoire = conditions: Toxicité moyenne; cited from earlier work
rat [9] = conditions: Toxicité aiguë par voie orale; cited from earlier work
[10] = tested on: Pseudomonas aeruginosa (CIP A22); conditions: temps de contact 5 min, 20°C, conditions de saleté
Procedure: as §3, §4

[11] = tested on: Staphylococcus aureus (CIP 53 154); conditions: temps de contact 5 min, 20°C
Procedure: as §3, §4

[12] = tested on: Escherichia coli (CIP 53 154); conditions: temps de contact 5 min, 20°C, conditions de saleté
Procedure: as §3, §4

[13] = tested on: Enterococcus hirae (CIP 58 55); conditions: temps de contact 5 min, 20°C
Procedure: as §3, §4

[14] = conditions de saleté (eau dure à 30°f, albumine 1 % + extraits de levures 1 %)

In the case of O=C(O)CC(O)C(=O)O (stereo not drawn) [Ac. Malique, acide malique], the “Chute du titre viral (exprimé en Log)” value ([1]; Ac. Malique 3000 ppm) is reported as 0,33 Log.

In the case of CC(C)c1ccc(S(=O)(=O)[O-])cc1.[Na+] [Cumène sulfonate de sodium, cumène sulfonate de sodium], the “Chute du titre viral (exprimé en Log)” value ([1]; Cumène sulfonate de sodium 1500 ppm) is reported as 0 Log.

With O=C(O)c1ccccc1C(=O)OO [monoperoxyphtalate de magnésium] the “concentrations minimales bactéricides (CMB)” value ([2]; Eau distillée) was 800 ppm, the “concentrations minimales bactéricides (CMB)” value ([2]; Eau dure 30°F) was 800 ppm and the “concentrations minimales bactéricides (CMB)” value ([3]; Eau distillée) was 800 ppm. For the same compound, the “concentrations minimales bactéricides (CMB)” value ([3]; Eau dure 30°F) was 800 ppm, the “LD50 (voie dermique, lapin)” value (lapin) was 2000 mg/kg de poids vif and the “Chute du titre viral (exprimé en Log)” value ([1]; MMPP 1000 ppm) was 2,6 Log. For the same compound, the “Chute du titre viral (exprimé en Log)” value ([1]; MMPP 1500 ppm) was 3,7 Log, the “LD50 (voie nasale, rat)” value (rat [4]) was 0,84 mg/l and the “LC50 (7 jours, truite arc en ciel)” value (truite arc en ciel) was 38,5 mg :l. For the same compound, the “concentration efficace sur les souches testées” value [5] was 7 500 ppm, the “concentration efficace sur les souches testées, en oxygène libre” value ([5]; oxygène libre) was 450 ppm and the “soluble en milieu aqueux” value [6] was 80 g/L. For the same compound, the “Propriétés Mutagenes” value [7] was “Non mutagène selon le test de AMES (norme n° ...)”, the “concentration à partir de laquelle activité virucide” value [8] was ≥ 1 500 ppm and the “Effets toxiques (alimentation de rats de laboratoire pendant 90 jours)” value (rats de laboratoire) was greater than 620 mg/kg de poids vif. For the same compound, the “LD50 (voie orale, rat)” value (rat [9]) was 2300 MG/kg de poids vif, the “Equivalence Avox” value [10] was no less than 300 ppm and the “Equivalence Avox” value ([11]; conditions de saleté) was no less than 450 ppm. The “Concentration active en monoperoxyphtalate de magnésium (réduction > 10^5 Log)” value [11, 14] was ≥ 7 500 ppm, the “Equivalence Avox” value [12] was no less than 150 ppm and the “Equivalence Avox” value ([13]; conditions de saleté) was no less than 300 ppm. The “Concentration active en monoperoxyphtalate de magnésium (réduction > 10^5 Log)” value [13, 14] was ≥ 5 000 ppm.
